Patent US4288595A, “7-(Substituted)-7H-pyrrolo[3,2-f]quinazoline-1,3-diamines” (priority 1980, dated 1981)
In brackets after ≈: the same amount, converted by molar mass. Like-named read-outs stand apart in the source and are kept apart here.

What was measured:
[1] = Blood schizonticidal antimalarial test in mice infected with Plasmodium berghei; details: mouse, in vivo, sc
Experimental: (§1) Test animals weigh from 18 to 22 grams but weight variations in any given experimental or control group are confined to 2-3 grams. All animals in any given test are approximately of the same age. Animals on test are housed in metal-topped plastic cages, given a standard laboratory diet and water ad libitum.
(§2) Test animals receive an intraperitoneal injection of 0.5 ml. of 1:100 dilution of heparinized heart's blood with a minimum of 90% parasitized cells (4×10^7 cells), drawn from donor mice infected one week earlier with Plasmodium berghei. The donor strain is maintained by weekly passages in separate groups of mice inoculated with a 0.5 ml. of 1:500 dilution of heparinized heart's blood.
(§3) Test compounds are administered after dissolution or suspension in peanut oil. A single dose is given subcutaneously 72 hours after the mice are infected with Plasmodium berghei. […] Since treatment is withheld for three days to permit the infection to become well established and death occurs in untreated controls within 6-8 days, it is felt that this system presents a candidate compound with the maximum challenge. In order to check factors such as changes in the infectivity of Plasmodium berghei or in the susceptibility of the host or to detect technical errors, a group of infected animals treated with pyrimethamine at dose levels producing definite increases in survival time is included in a positive control in every experiment.
(§4) In each experiment test compounds are administered in graded dosages. […] Deaths prior to the sixth day, when untreated controls begin to die, are regarded as nonparasitic and become the basis for toxicity evaluations. Treated animals are kept under observation for 60 days. Survivors at the end of this period of time are considered as cured. In calculating mean survival time, toxic deaths and 60-day survivors are not included.

[2] = test system: Plasmodium berghei KBG 173; assay: as above; details: for ED100 / minimal effective dose: Plasmodium berghei, in Mus musculus, sc; for ED100: read-out: Lowest Dose Curing All Mice; for minimal effective dose: read-out: Min. Curing Dose; for ΔMST (increase in mean survival time of treated animals to untreated controls): s.c.
Experimental: as §1, §2, §3, §4

S. aureus 53-180 = assay: In vitro antibacterial activity, MIC by agar dilution; assay type: cell-based; details: Staphylococcus aureus, 53180; Wellcotest Sensitivity Test Agar, 5% hemolyzed horse blood, 18 hours at 35° C.
Experimental: (§5) A stock solution or suspension of the test compound at a concentration of 2500 μg/ml. is prepared utilizing a suitable solvent or medium such as aqueous sodium hydroxide, aqueous lactic acid, methyl cellosolve, dimethylsulfoxide, dimethylacetamide, ethylene glycol, dimethylformamide, formamide, propylene glycol, acetone or methanol. Two-fold dilutions are made by adding appropriate amounts of sterile water to the solution or suspension of the test substance. One ml. quantities of each dilution are incorporated into Wellcotest Sensitivity Test Agar fortified with 5% hemolyzed horse blood (9 ml. vol.) in sterile Petri dishes to give plates containing varying concentrations of the test compound. The hardened surfaces of each plate are incubated with the test organism, and the plates are incubated for 18 hours at 35° C.

K. pneumoniae 10031 = assay: as above; assay type: cell-based; details: read-out: MIC, K. pneumoniae 10031
Experimental: as §5

S. paratyphi 11737 = assay: as above; assay type: cell-based; details: Salmonella enterica, read-out: MIC, S. paratyphi 11737
Experimental: as §5

S. aureus Smith = assay: as above; assay type: cell-based; details: Staphylococcus aureus; Wellcotest Sensitivity Test Agar, 5% hemolyzed horse blood, 18 hours at 35° C.
Experimental: as §5

P. vulgaris 6896 = assay: as above; assay type: cell-based; details: Proteus vulgaris, Wellcotest Sensitivity Test Agar, 5% hemolyzed horse blood, 18 hours at 35° C.
Experimental: as §5

E. coli 9637 = assay: as above; assay type: cell-based; details: read-out: MIC, E. coli 9637
Experimental: as §5

N. catarrhalis 8193 = assay: as above; assay type: cell-based; details: Wellcotest Sensitivity Test Agar, 5% hemolyzed horse blood, 18 hours at 35° C.
Experimental: as §5

[3] = Klebsiella pneumoniae, 10031, Wellcotest Sensitivity Test Agar, 5% hemolyzed horse blood, 18 hours at 35° C.
[4] = Wellcotest Sensitivity Test Agar, 5% hemolyzed horse blood, 18 hours at 35° C.
[5] = Escherichia coli, 9637, Wellcotest Sensitivity Test Agar, 5% hemolyzed horse blood, 18 hours at 35° C.

Compound | MTD at 1440 h [1] [mg/kg] | ED100 ([2]; 1440 h) [mg/kg] | minimal effective dose ([2]; 1440 h) [mg/kg] | ΔMST (increase in mean survival time of treated animals to untreated controls) ([2]; dose 5 mg. per kg.) | MIC (S. aureus 53-180) [µg/mL] | MIC (K. pneumoniae 10031; [3]) [µg/mL] | MIC (S. paratyphi 11737; [4]) [µg/mL] | MIC (S. aureus Smith) [µg/mL] | MIC (P. vulgaris 6896) [µg/mL] | MIC (E. coli 9637; [5]) [µg/mL] | ΔMST (increase in mean survival time of treated animals to untreated controls) ([2]; dose 10 mg. per kg.) | ED100 ([2]; 336 h) [mg/kg] | minimal effective dose ([2]; 336 h) [mg/kg] | MIC (N. catarrhalis 8193) [µg/mL] | MIC (K. pneumoniae 10031; Klebsiella pneumoniae, 10031, 18 h) [µg/mL] | MIC (E. coli 9637; Escherichia coli, 9637, 18 h) [µg/mL] | MIC (S. paratyphi 11737; 18 h) [µg/mL] | ΔMST (increase in mean survival time of treated animals to untreated controls) ([2]; dose 20 mg. per kg.) | ΔMST (increase in mean survival time of treated animals to untreated controls) ([2]; dose 160 mg. per kg.)
CC(=O)Nc1ccc(S(=O)(=O)n2ccc3c4c(N)nc(N)nc4ccc32)cc1 [Example 11] | 320 | 20 | 10 | 9.3 | 31.3 (≈ 79 µM) | 7.81 (≈ 19.7 µM) | > 250 | 31.3 (≈ 79 µM) | > 250 | > 250 |  |  |  |  |  |  |  |  | 
CC(C)(C)c1ccc(S(=O)(=O)n2ccc3c4c(N)nc(N)nc4ccc32)cc1 [Example 12] | 640 | 40 | 20 |  | 3.9 (≈ 9.86 µM) | 1.95 (≈ 4.93 µM) | > 250 | 7.81 (≈ 19.7 µM) | > 250 | 250 (≈ 632 µM) | 6.5 |  |  |  |  |  |  |  | 
Nc1nc(N)c2c(ccc3c2ccn3S(=O)(=O)c2ccc(Cl)cc2)n1 [Example 8] | 160 |  |  |  | 15.6 (≈ 41.7 µM) | 7.81 (≈ 20.9 µM) | > 250 | 62.5 (≈ 167 µM) | > 250 | > 250 |  | 40 | 40 | 0.244 (≈ 0.653 µM) |  |  |  |  | 
Cc1ccc(C)c(S(=O)(=O)n2ccc3c4c(N)nc(N)nc4ccc32)c1 [Example 2, 7-[(2,5-Dimethylphenyl)Sulfonyl]-7H-Pyrrolo-[3,2-f]Quinazoline-1,3-Diamine] | 160 | 40 | 20 | 6.6 | 0.976 (≈ 2.66 µM) |  | 31.3 (≈ 85.2 µM) | 7.81 (≈ 21.3 µM) | 62.5 (≈ 170 µM) |  |  |  |  |  | 31.3 (≈ 85.2 µM) | 31.3 (≈ 85.2 µM) |  |  | 
Nc1nc(N)c2c(ccc3c2ccn3S(=O)(=O)c2ccc(Cl)c(Cl)c2)n1 [Example 7] | 640 |  |  |  | 3.9 (≈ 9.55 µM) | 3.13 (≈ 7.67 µM) |  | 31.3 (≈ 76.7 µM) | > 250 | > 250 |  | 10 | 1.25 | 0.122 (≈ 0.299 µM) |  |  | > 250 |  | 
Nc1nc(N)c2c(ccc3c2ccn3S(=O)(=O)c2cccc(C(F)(F)F)c2)n1 [Example 9] | 160 | 40 | 10 | 6.6 | 0.976 (≈ 2.4 µM) | 3.9 (≈ 9.57 µM) | > 250 | 3.9 (≈ 9.57 µM) | > 250 | > 250 |  |  |  |  |  |  |  |  | 
Nc1nc(N)c2c(ccc3c2ccn3S(=O)(=O)c2ccccc2)n1 [Example 10] |  |  | 40 |  | 0.976 (≈ 2.88 µM) | 0.488 (≈ 1.44 µM) | 15.6 (≈ 46 µM) | 1.95 (≈ 5.75 µM) | 125 (≈ 368 µM) | 3.9 (≈ 11.5 µM) |  |  |  |  |  |  |  | 7.2 | 
Cc1ccc(S(=O)(=O)n2ccc3c4c(N)nc(N)nc4ccc32)cc1 [Example 5] | 640 | 80 | 20 |  | 62.5 (≈ 177 µM) | 15.6 (≈ 44.1 µM) | > 250 | 125 (≈ 354 µM) | > 250 | > 250 | 5.8 |  |  | 1.95 (≈ 5.52 µM) |  |  |  |  | 
Nc1nc(N)c2c(ccc3c2ccn3S(=O)(=O)c2ccc([N+](=O)[O-])cc2)n1 [Example 3] |  |  | 640 |  | 3.9 (≈ 10.1 µM) | 3.9 (≈ 10.1 µM) | > 250 | 7.81 (≈ 20.3 µM) | > 250 | 7.81 (≈ 20.3 µM) |  |  |  | 0.12 (≈ 0.312 µM) |  |  |  |  | 8.4
Nc1nc(N)c2c(ccc3c2ccn3S(=O)(=O)c2ccc3ccccc3c2)n1 [Example 4] |  |  | 20 |  | 250 (≈ 642 µM) | > 250 | > 250 | 250 (≈ 642 µM) | > 250 | > 250 | 11.4 |  |  | 15.6 (≈ 40.1 µM) |  |  |  |  | 
COc1ccc(S(=O)(=O)n2ccc3c4c(N)nc(N)nc4ccc32)cc1 [Example 6] | 640 | 160 | 40 |  | 7.81 (≈ 21.1 µM) | 3.9 (≈ 10.6 µM) | > 250 | 15.6 (≈ 42.2 µM) | > 250 | > 250 |  |  |  | 0.122 (≈ 0.33 µM) |  |  |  |  | 
